Marks after values point to notes of the source that are not given here. Starred links: 1 amine or outer side, 2 acyl side, 3 side chain; linkers in the order of their positions; H or OH if unused. Non-standard residues stand in square brackets, D forms with d. Residues, ends and D or L forms follow the SMILES beside them. Groups on a side chain read outwards from the residue. *: point of attachment. C18 diacid = O=C(O)CCCCCCCCCCCCCCCCC(=O)*; αMePhe(2-F) = C[C@](N)(Cc1ccccc1F)C(=O)O; γGlu = O=C(O)[C@H](CCC(=O)[*:2])N[*:1]; AEEA = NCCOCCOCC(=O)O; Aib = CC(C)(N)C(=O)O
Columns and labels:
[1] = target: T1, GLP-1R (Homo sapiens, UniProt P43220); assay: In vitro cell activity, cAMP production in HEK293 cells expressing GLP-1R; type: cell-based
T1 construct: expressed in transfected cells; host or cells: HEK293 (HEK293-GLP-1R)
In short: (§1)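 HEK293 transfectants, 4×10^5 cells/mL, 384-well. Detection: cAMP-d2 + anti-cAMP cryptate 1:1, RT 1 h dark or 4 °C o/n. Read 665/620 nm; 4-parameter nonlinear fit → EC50.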

[2] = target: T2, GCGR (Homo sapiens, UniProt P47871); assay: In vitro cell activity, cAMP production in HEK293 cells expressing GCGR; type: cell-based
T2 construct: expressed in transfected cells; host or cells: HEK293 (HEK293-GCGR)
In short: as §1

[3] = target: T3, GIPR (Homo sapiens, UniProt P48546); assay: In vitro cell activity, cAMP production in HEK293 cells expressing GIPR; type: cell-based
T3 construct: expressed in transfected cells; host or cells: HEK293 (HEK293-GIPR)
T3 sequence (P48546 22-466): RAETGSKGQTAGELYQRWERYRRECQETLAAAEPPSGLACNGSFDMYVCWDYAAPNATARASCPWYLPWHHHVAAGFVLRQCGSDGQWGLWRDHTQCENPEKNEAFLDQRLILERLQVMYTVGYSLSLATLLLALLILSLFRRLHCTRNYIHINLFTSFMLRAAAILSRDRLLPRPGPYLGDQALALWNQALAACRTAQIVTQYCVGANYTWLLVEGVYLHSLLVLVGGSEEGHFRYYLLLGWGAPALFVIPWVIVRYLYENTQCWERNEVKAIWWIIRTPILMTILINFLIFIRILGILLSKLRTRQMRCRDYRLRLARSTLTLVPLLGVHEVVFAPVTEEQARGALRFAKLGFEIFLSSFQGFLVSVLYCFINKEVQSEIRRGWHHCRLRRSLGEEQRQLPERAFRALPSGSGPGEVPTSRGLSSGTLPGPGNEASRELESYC
In short: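 HEK293 cells expressing human GIPR, thawed and diluted to 4×10^5 cells/mL, are stimulated with test compound. cAMP is measured by HTRF competition between cAMP-d2 and anti-cAMP cryptate. EC50 comes from a four-parameter nonlinear fit of signal ratio against concentration.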

[4] = Pharmacokinetic study in rats, single subcutaneous injection; conditions: male, Sprague Dawley, in vivo, sc, rat, 50 nmol/kg single subcutaneous injection, plasma; for half-life: read-out: T1/2 (converted); for Tmax: read-out: Tmax
Protocol: The pharmacokinetic study of each polypeptide compound prepared in Example 1 was conducted using male Sprague Dawley rats. There were 3 male rats in each group. […] The dose was 50 nmol/kg, and a single subcutaneous injection was given (see Table 3 for specific peptide compounds). After administration, plasma was collected on the specified days and time points, and the concentration of each peptide compound in the plasma was detected by LC-MS/MS method. The pharmacokinetic parameters were obtained based on the concentration data, which were used to describe the pharmacokinetic properties of the peptide in rats after subcutaneous injection. Table 3: Summary of pharmacokinetic parameters of some triple-target peptides in rats

[5] = Glucose tolerance assessment in normal C57BL/6 mice (Example 5); type: in vivo; conditions: for Blood glucose level (mM) 15 min / Blood glucose level (mM) 30 min / Blood glucose level (mM) 60 min / Blood glucose level (mM) 90 min / Blood glucose level (mM) 0 min / AUC0-90 min: 3 nmol/kg s.c. single dose, 24 h after administration; for Blood glucose level (mM) 15 min: 15 min after 2 g/kg glucose i.p.; for Blood glucose level (mM) 30 min: 30 min after 2 g/kg glucose i.p.; for Blood glucose level (mM) 60 min: 60 min after 2 g/kg glucose i.p.; for Blood glucose level (mM) 90 min: 90 min after 2 g/kg glucose i.p.; for Blood glucose level (mM) 0 min: basal before 2 g/kg glucose i.p.; for AUC0-90 min: blood glucose AUC, 2 g/kg glucose i.p.
In short: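 Normal C57BL/6 mice given a single dose, fasted 12 h starting 12 h post-dose, then challenged with 2 g/kg glucose i.p. Tail-vein glucose measured at baseline and 15, 30, 60, 90 min. AUC0~90min calculated from the glucose–time curve per dose group.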

T2 sequence (P47871 26-477, species assumed): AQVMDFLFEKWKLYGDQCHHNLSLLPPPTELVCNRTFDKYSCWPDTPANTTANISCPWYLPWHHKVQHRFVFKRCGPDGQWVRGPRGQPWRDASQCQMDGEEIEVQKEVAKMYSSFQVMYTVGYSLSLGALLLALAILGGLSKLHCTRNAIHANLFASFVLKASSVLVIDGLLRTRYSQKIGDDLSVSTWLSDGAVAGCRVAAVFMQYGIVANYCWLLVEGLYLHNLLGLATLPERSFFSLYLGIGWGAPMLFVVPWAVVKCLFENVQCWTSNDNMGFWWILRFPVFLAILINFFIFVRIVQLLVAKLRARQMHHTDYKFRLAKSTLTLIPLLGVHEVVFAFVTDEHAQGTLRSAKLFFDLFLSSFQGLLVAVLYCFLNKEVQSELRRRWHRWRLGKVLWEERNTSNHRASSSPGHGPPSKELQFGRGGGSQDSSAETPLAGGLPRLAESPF
T1 sequence (P43220 24-463, species assumed): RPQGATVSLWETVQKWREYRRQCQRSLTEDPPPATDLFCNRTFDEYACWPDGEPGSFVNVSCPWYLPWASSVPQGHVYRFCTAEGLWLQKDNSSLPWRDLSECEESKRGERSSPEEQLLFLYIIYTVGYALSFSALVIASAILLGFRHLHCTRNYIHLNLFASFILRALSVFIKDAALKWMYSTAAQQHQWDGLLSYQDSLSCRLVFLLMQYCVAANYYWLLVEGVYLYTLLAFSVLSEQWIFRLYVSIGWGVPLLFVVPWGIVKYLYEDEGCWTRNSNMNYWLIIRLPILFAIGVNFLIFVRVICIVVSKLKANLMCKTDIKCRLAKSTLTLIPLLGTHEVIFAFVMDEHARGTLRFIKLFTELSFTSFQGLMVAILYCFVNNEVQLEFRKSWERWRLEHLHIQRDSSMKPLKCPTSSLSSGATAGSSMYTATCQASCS

Row | SMILES | EC50 [1] [pM] | EC50 [2] [pM] | EC50 [3] [pM] | AUC(0-inf) [4] [ng·h/mL] | AUC(0-t) [4] [ng·h/mL] | Cmax [4] [ng/mL] | half-life [4] [h] | Tmax [4] [h] | Blood glucose level (mM) 15 min [5] [mM] | Blood glucose level (mM) 30 min [5] [mM] | Blood glucose level (mM) 60 min [5] [mM] | Blood glucose level (mM) 90 min [5] [mM] | Blood glucose level (mM) 0 min [5] [mM] | AUC0-90 min [5] | improvement of glucose tolerance compared with LY3298176 ([5]; 24 hours after a single administration, 3 nmol/kg)
1 | CC[C@H](C)[C@H](NC(=O)[C@H](Cc1ccccc1)NC(=O)[C@H](CCC(=O)O)NC(=O)[C@H](CCCNC(=N)N)NC(=O)[C@H](CCC(N)=O)NC(=O)[C@H](CCCNC(=N)N)NC(=O)[C@H](CCCCNC(=O)COCCOCCNC(=O)CC[C@H](NC(=O)CCCCCCCCCCCCCCCCCCC(=O)O)C(=O)O)NC(=O)[C@H](CCC(=O)O)NC(=O)[C@H](CC(=O)O)NC(=O)[C@H](CC(C)C)NC(=O)[C@H](CC(C)C)NC(=O)[C@@H](NC(=O)[C@H](CO)NC(=O)[C@H](Cc1ccc(O)cc1)NC(=O)[C@H](CC(=O)O)NC(=O)[C@H](CO)NC(=O)[C@@H](NC(=O)[C@](C)(Cc1ccccc1F)NC(=O)[C@@H](NC(=O)CNC(=O)[C@H](Cc1c[nH]cn1)NC(=O)C(C)(C)NC(=O)[C@@H](N)Cc1ccc(O)cc1)[C@@H](C)O)[C@@H](C)O)[C@@H](C)CC)C(=O)N[C@@H](CCC(=O)O)C(=O)N[C@@H](Cc1c[nH]c2ccccc12)C(=O)N[C@@H](CC(C)C)C(=O)N[C@@H](CC(C)C)C(=O)N[C@@H](C)C(=O)NCC(=O)NCC(=O)N1CCC[C@H]1C(=O)N[C@@H](CO)C(=O)N[C@@H](CO)C(=O)NCC(=O)N[C@@H](C)C(=O)N1CCC[C@H]1C(=O)N1CCC[C@H]1C(=O)N1CCC[C@H]1C(=O)N[C@@H](CO)C(=O)O [HEC-PT96] | 158 | 192 | 150 | 40900 ± 1990 | 40300 ± 1930 | 840 ± 41.4 | 17 ± 0.65 | 25 ± 2.3 | 13.0 ± 2.9 | 10.8 ± 3.2 | 7.9 ± 1.6 | 6.2 ± 1.3 | 4.2 ± 0.6 | 798.9±146.0^a | 
2 | CC[C@H](C)[C@H](NC(=O)[C@H](CCCCN)NC(=O)[C@H](CC(=O)O)NC(=O)[C@H](CCCCNC(=O)COCCOCCNC(=O)CC[C@H](NC(=O)CCCCCCCCCCCCCCCCC(=O)O)C(=O)O)NC(=O)[C@H](CC(C)C)NC(=O)[C@@H](NC(=O)[C@H](CO)NC(=O)[C@H](Cc1ccc(O)cc1)NC(=O)[C@H](CC(=O)O)NC(=O)[C@H](CO)NC(=O)[C@@H](NC(=O)[C@](C)(Cc1ccccc1F)NC(=O)[C@@H](NC(=O)CNC(=O)[C@H](CCC(N)=O)NC(=O)C(C)(C)NC(=O)[C@@H](N)Cc1ccc(O)cc1)[C@@H](C)O)[C@@H](C)O)[C@@H](C)CC)C(=O)N[C@@H](C)C(=O)N[C@@H](CCC(N)=O)C(=O)N[C@@H](CCC(N)=O)C(=O)N[C@@H](C)C(=O)N[C@@H](Cc1ccccc1)C(=O)N[C@H](C(=O)N[C@@H](CCC(=O)O)C(=O)N[C@@H](Cc1ccc(O)cc1)C(=O)N[C@@H](CC(C)C)C(=O)N[C@@H](CC(C)C)C(=O)N[C@@H](CCC(=O)O)C(=O)NCC(=O)NCC(=O)N1CCC[C@H]1C(=O)N[C@@H](CO)C(=O)N[C@@H](CO)C(=O)NCC(=O)N[C@@H](C)C(=O)N1CCC[C@H]1C(=O)N1CCC[C@H]1C(=O)N1CCC[C@H]1C(=O)N[C@@H](CO)C(N)=O)[C@@H](C)CC [HEC-PT113] (H-Y[Aib]QGT[αMePhe(2-F)]TSDYSILK([AEEA-γGlu-C18 diacid])DKIAQQAFIEYLLEGGPSSGAPPPS-NH2) | 103 | 172 | 18.8 | 27900 ± 4180 | 27700 ± 4110 | 714 ± 63.2 | 11 ± 0.62 | 13 ± 9.9 | 12.6 ± 1.7 | 8.0 ± 1.0 | 7.9 ± 1.3 | 6.7 ± 0.8 | 4.6 ± 0.9 | 743.5±48.5^a | improved glucose tolerance in mice better than the positive control LY3298176

From patent publication EP4596574A1, “GLP-1/GCG/GIP TRIPLE-RECEPTOR AGONIST AND USE THEREOF” (Sunshine Lake Pharma Co., Ltd., priority 2022, dated 2024)
